The numbers were not newly measured in patent US11241503B2, “Oxadiazole linkers and use thereof” (NewBio Therapeutics, Inc., priority 2017, dated 2022), which cites them from elsewhere.

In the data set the test system is human carcinoma lines.

What is called IC50 is the concentration that inhibits the measured activity by half. For `COc1cccc2c1C(=O)c1c(O)c3c(c(O)c1C2=O)C[C@@](O)(C(=O)CO)C[C@@H]3O[C@H]1C[C@H](N)[C@H](O)[C@H](C)O1` [doxorubicin, Doxorubicin], the IC50 is 100 to 200 nM.
